Results published in patent US11173151B2, “Substituted triazole derivatives and uses thereof” (BAYER AKTIENGESELLSCHAFT, priority 2017, dated 2021).

Experiments:
[1] = molecular target: T1, human V2 receptor (Homo sapiens, UniProt P30518); assay: Cellular in vitro assay for determining vasopressin receptor activity, V2 receptor cell line (CHO, CRE-luciferase); format: cell-based; conditions: CHO cell line transfected with human V2 receptor; [Arg8]-vasopressin at EC50 concentration, 3 hours; read-out: IC50 hV2
T1 construct: expressed in transfected cells; host or cells: CHO K1 (ATCC) expressing firefly luciferase under a CRE-responsive promoter
Procedure: (§1) B-1. Cellular In Vitro Assay for Determining Vasopressin Receptor Activity
(§2) The identification of agonists and antagonists of the V1a and V2 vasopressin receptors from humans, rats and dogs as well as the quantification of the activity of the compounds of the invention is carried out using recombinant cell lines. These cell lines originally derive from a hamster's ovary epithelial cell (Chinese Hamster Ovary, CHO K1, ATCC: American Type Culture Collection, Manassas, Va. 20108, USA). The test cell lines constitutively express the human, rat or dog V1a or V2 receptors. In case of the Gαq-coupled V1a receptors, cells are also stably transfected with a modified form of the calcium-sensitive photoproteins aequorin (human and rat V1a) or obelin (dog V1a), which, after reconstitution with the cofactor coelenterazine, emit light when there are increases in free calcium concentrations [Rizzuto R, Simpson A W, Brini M, Pozzan T, Nature 358, 325-327 (1992); Illarionov B A, Bondar V S, Illarionova V A, Vysotski E S, Gene 153 (2), 273-274 (1995)]. The resulting vasopressin receptor cells react to stimulation of the recombinantly expressed V1a receptors by intracellular release of calcium ions, which can be quantified by the resulting photoprotein luminescence. The Gs-coupled V2 receptors are stably transfected into cell lines expressing the gene for firefly luciferase under control of a CRE-responsible promoter. Activation of V2 receptors induces the activation of the CRE-responsive promoter via cAMP increase, thereby inducing the expression of firefly luciferase. The light emitted by photoproteins of V1a cell lines as well as the light emitted by firefly luciferase of V2 cell lines corresponds to the activation or inhibition of the respective vasopressin receptor. The bioluminescence of the cell lines is detected using a suitable luminometer [Milligan G, Marshall F, Rees S, Trends in Pharmacological Sciences 17, 235-237 (1996)].
Vasopressin V2 Receptor Cell Lines:
On the day before the assay, the cells are plated out in culture medium (DMEM/F12, 2% FCS, 2 mM glutamine, 10 mM HEPES) in 384-well microtiter plates and kept in a cell incubator (96% humidity, 5% v/v CO2, 37° C.). On the day of the assay, test compounds in various concentrations and the agonist [Arg^8]-vasopressin at EC50 concentration are added together to the wells, and plates are incubated for 3 hours in a cell incubator. Upon addition of the cell lysis reagent Triton™ and the substrate luciferin, luminescence of firefly luciferase is measured in a luminometer.
(§3) Table 1A below lists individual IC50 values for the compounds of the invention (including racemic mixtures as well as separated enantiomers) that were obtained from cell lines transfected with the human V1a or V2 receptor: […]

[2] = molecular target: T2, human V1a receptor (Homo sapiens, UniProt P37288); assay: Cellular in vitro assay for determining vasopressin receptor activity, V1a receptor cell line (CHO, aequorin luminescence); format: cell-based; conditions: for IC50: CHO cell line transfected with human V1a receptor, [Arg]-vasopressin at EC50 concentration, read-out: IC50 hV1a; for ratio IC50 hV2/hV1a: selectivity ratio IC50 hV2 / IC50 hV1a
T2 construct: expressed in transfected cells; host or cells: CHO K1 (ATCC), also stably transfected with a modified aequorin
Procedure: as §1, §2
Vasopressin V1a Receptor Cell Lines:
On the day before the assay, the cells are plated out in culture medium (DMEM/F12, 2% FCS, 2 mM glutamine, 10 mM HEPES, 5 μg/ml coelenterazine) in 384-well microtiter plates and kept in a cell incubator (96% humidity, 5% v/v CO2, 37° C.). On the day of the assay, test compounds in various concentrations are placed for 10 minutes in the wells of the microtiter plate before the agonist [Arg]-vasopressin at EC50 concentration is added. The resulting light signal is measured immediately in a luminometer.
as §3

T2 sequence (P37288 whole entry): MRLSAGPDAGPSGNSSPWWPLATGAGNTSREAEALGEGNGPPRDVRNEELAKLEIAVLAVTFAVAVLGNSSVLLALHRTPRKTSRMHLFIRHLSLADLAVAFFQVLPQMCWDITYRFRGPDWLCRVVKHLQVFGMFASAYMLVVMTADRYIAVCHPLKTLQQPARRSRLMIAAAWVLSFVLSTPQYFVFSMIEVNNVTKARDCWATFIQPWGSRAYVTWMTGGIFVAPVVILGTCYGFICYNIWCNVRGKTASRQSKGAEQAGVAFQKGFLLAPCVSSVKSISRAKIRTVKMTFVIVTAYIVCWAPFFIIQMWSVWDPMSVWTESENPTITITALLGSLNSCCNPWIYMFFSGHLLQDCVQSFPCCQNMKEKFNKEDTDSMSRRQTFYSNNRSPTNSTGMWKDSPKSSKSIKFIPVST
T1 sequence (P30518 whole entry): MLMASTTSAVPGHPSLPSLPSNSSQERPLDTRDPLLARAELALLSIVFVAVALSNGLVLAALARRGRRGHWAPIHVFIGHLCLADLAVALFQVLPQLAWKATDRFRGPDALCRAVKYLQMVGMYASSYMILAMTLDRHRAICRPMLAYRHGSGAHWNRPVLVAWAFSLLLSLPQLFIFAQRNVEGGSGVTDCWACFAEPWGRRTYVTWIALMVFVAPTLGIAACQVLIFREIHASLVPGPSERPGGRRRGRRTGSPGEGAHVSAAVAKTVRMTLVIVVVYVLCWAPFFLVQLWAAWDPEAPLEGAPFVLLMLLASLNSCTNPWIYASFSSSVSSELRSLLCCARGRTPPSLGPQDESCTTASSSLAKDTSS

Compound	IC50 [1] [nM]	IC50 [2] [nM]	ratio IC50 hV2/hV1a [2]
CCC(C)NC(=O)c1ccccc1-n1cnc(Cn2nc(-c3ccc(Cl)cc3)n(C[C@H](O)C(F)(F)F)c2=O)n1 (mixture of isomers) [Example 204, N-[Butan-2-yl]-2-[3-({3-(4-chlorophenyl)-5-oxo-4-[(2S)-3,3,3-trifluoro-2-hydroxypropyl]-4,5-dihydro-1H-1,2,4-triazol-1-yl}methyl)-1H-1,2,4-triazol-1-yl]benzamide]	115	1.25	92.0
O=C(NC1CCOC1)c1ccccc1-n1cnc(Cn2nc(-c3ccc(Cl)cc3)n(C[C@H](O)C(F)(F)F)c2=O)n1 (mixture of isomers) [Example 208, 2-[3-({3-(4-Chlorophenyl)-5-oxo-4-[(2S)-3,3,3-trifluoro-2-hydroxypropyl]-4,5-dihydro-1H-1,2,4-triazol-1-yl}methyl)-1H-1,2,4-triazol-1-yl]-N-[tetrahydrofuran-3-yl]benzamide]	95.5	2.4	39.8
CC1CCCC(NC(=O)c2ccccc2-n2cnc(Cn3nc(-c4ccc(Cl)cc4)n(C[C@H](O)C(F)(F)F)c3=O)n2)C1 (mixture of isomers) [Example 224, 2-[3-({3-(4-Chlorophenyl)-5-oxo-4-[(2S)-3,3,3-trifluoro-2-hydroxypropyl]-4,5-dihydro-1H-1,2,4-triazol-1-yl}methyl)-1H-1,2,4-triazol-1-yl]-N-(3-methylcyclohexyl)benzamide]	145	12.6	11.5
O=C(NC1CCOC1=O)c1ccccc1-n1cnc(Cn2nc(-c3ccc(Cl)cc3)n(C[C@H](O)C(F)(F)F)c2=O)n1 (mixture of isomers) [Example 231, 2-[3-({3-(4-Chlorophenyl)-5-oxo-4-[(2S)-3,3,3-trifluoro-2-hydroxypropyl]-4,5-dihydro-1H-1,2,4-triazol-1-yl}methyl)-1H-1,2,4-triazol-1-yl]-N-[(3S)-2-oxotetrahydrofuran-3-yl]benzamide]	775	3.05	254.1
COC1CCCN(C(=O)c2ccccc2-n2cnc(Cn3nc(-c4ccc(Cl)cc4)n(C[C@H](O)C(F)(F)F)c3=O)n2)C1 (mixture of isomers) [Example 269, 5-(4-Chlorophenyl)-2-{[1-(2-{[3-methoxypiperidin-1-yl]carbonyl}phenyl)-1H-1,2,4-triazol-3-yl]methyl}-4-[(2S)-3,3,3-trifluoro-2-hydroxypropyl]-2,4-dihydro-3H-1,2,4-triazol-3-one]	1050	2.5	422.0
CC1SCCN1C(=O)c1ccccc1-n1cnc(Cn2nc(-c3ccc(Cl)cc3)n(C[C@H](O)C(F)(F)F)c2=O)n1 (mixture of isomers) [Example 270, 5-(4-Chlorophenyl)-2-{[1-(2-{[2-methyl-1,3-thiazolidin-3-yl]carbonyl}phenyl)-1H-1,2,4-triazol-3-yl]methyl}-4-[(2S)-3,3,3-trifluoro-2-hydroxypropyl]-2,4-dihydro-3H-1,2,4-triazol-3-one]	1440	2.1	685.7
CN1CCC(N(C)C(=O)c2ccccc2-n2cnc(Cn3nc(-c4ccc(Cl)cc4)n(C[C@H](O)C(F)(F)F)c3=O)n2)C1 (mixture of isomers) [Example 274, 2-[3-({3-(4-Chlorophenyl)-5-oxo-4-[(2S)-3,3,3-trifluoro-2-hydroxypropyl]-4,5-dihydro-1H-1,2,4-triazol-1-yl}methyl)-1H-1,2,4-triazol-1-yl]-N-methyl-N-[1-methylpyrrolidin-3-yl]benzamide]	9650	22	438.6
CC1CCCN(C(=O)c2ccccc2-n2cnc(Cn3nc(-c4ccc(Cl)cc4)n(C[C@H](O)C(F)(F)F)c3=O)n2)C1C (mixture of isomers) [Example 275, 5-(4-Chlorophenyl)-2-[(1-{2-[(2,3-dimethylpiperidin-1-yl)carbonyl]phenyl}-1H-1,2,4-triazol-3-yl)methyl]-4-[(2S)-3,3,3-trifluoro-2-hydroxypropyl]-2,4-dihydro-3H-1,2,4-triazol-3-one]	1240	2.55	484.3
CC1C(=O)NCCN1C(=O)c1ccccc1-n1cnc(Cn2nc(-c3ccc(Cl)cc3)n(C[C@H](O)C(F)(F)F)c2=O)n1 (mixture of isomers) [Example 280, 4-{2-[3-({3-(4-Chlorophenyl)-5-oxo-4-[(2S)-3,3,3-trifluoro-2-hydroxypropyl]-4,5-dihydro-1H-1,2,4-triazol-1-yl}methyl)-1H-1,2,4-triazol-1-yl]benzoyl}-3-methylpiperazin-2-one]	10100	78.5	129.3
CC1COCCN1C(=O)c1ccccc1-n1cnc(Cn2nc(-c3ccc(Cl)cc3)n(C[C@H](O)C(F)(F)F)c2=O)n1 (mixture of isomers) [Example 282, 5-(4-Chlorophenyl)-2-{[1-(2-{[3-methylmorpholin-4-yl]carbonyl}phenyl)-1H-1,2,4-triazol-3-yl]methyl}-4-[(2S)-3,3,3-trifluoro-2-hydroxypropyl]-2,4-dihydro-3H-1,2,4-triazol-3-one]	2350	2.35	1000.0
CC1CN(C(=O)c2ccccc2-n2cnc(Cn3nc(-c4ccc(Cl)cc4)n(C[C@H](O)C(F)(F)F)c3=O)n2)CCO1 (mixture of isomers) [Example 283, 5-(4-Chlorophenyl)-2-{[1-(2-{[2-methylmorpholin-4-yl]carbonyl}phenyl)-1H-1,2,4-triazol-3-yl]methyl}-4-[(2S)-3,3,3-trifluoro-2-hydroxypropyl]-2,4-dihydro-3H-1,2,4-triazol-3-one]	7500	6.05	1239.7
CC(O)CNC(=O)c1ccccc1-n1cnc(Cn2nc(-c3ccc(Cl)cc3)n(C[C@H](O)C(F)(F)F)c2=O)n1 (mixture of isomers) [Example 292, 2-[3-({3-(4-Chlorophenyl)-5-oxo-4-[(2S)-3,3,3-trifluoro-2-hydroxypropyl]-4,5-dihydro-1H-1,2,4-triazol-1-yl}methyl)-1H-1,2,4-triazol-1-yl]-N-[2-hydroxypropyl]benzamide]	64.5	2.95	21.9
O=C(NCC(O)CO)c1ccccc1-n1cnc(Cn2nc(-c3ccc(Cl)cc3)n(C[C@H](O)C(F)(F)F)c2=O)n1 (mixture of isomers) [Example 297, 2-[3-({3-(4-Chlorophenyl)-5-oxo-4-[(2S)-3,3,3-trifluoro-2-hydroxypropyl]-4,5-dihydro-1H-1,2,4-triazol-1-yl}methyl)-1H-1,2,4-triazol-1-yl]-N-[2,3-dihydroxypropyl]benzamide]	1400	5.05	277.2
O=C(c1ccccc1-n1cnc(Cn2nc(-c3ccc(Cl)cc3)n(C[C@H](O)C(F)(F)F)c2=O)n1)N1CCC(O)C1 (mixture of isomers) [Example 298, 5-(4-Chlorophenyl)-2-{[1-(2-{[3-hydroxypyrrolidin-1-yl]carbonyl}phenyl)-1H-1,2,4-triazol-3-yl]methyl}-4-[(2S)-3,3,3-trifluoro-2-hydroxypropyl]-2,4-dihydro-3H-1,2,4-triazol-3-one]	1540	3.3	468.2
CC1CCCCC1NC(=O)c1ccccc1-n1cnc(Cn2nc(-c3ccc(Cl)cc3)n(C[C@H](O)C(F)(F)F)c2=O)n1 (mixture of isomers) [Example 319, 2-[3-({3-(4-Chlorophenyl)-5-oxo-4-[(2S)-3,3,3-trifluoro-2-hydroxypropyl]-4,5-dihydro-1H-1,2,4-triazol-1-yl}methyl)-1H-1,2,4-triazol-1-yl]-N-(2-methylcyclohexyl)benzamide]	325	3.55	91.5
